In patent publication US20110144128A1, “Heterocyclic Carboxamide Compounds as Steroid Nuclear Receptors Ligands” (EXELIXIS, INC., priority 2005, published 2011):

What was measured:
AR, ERα, GR and PR = test: selectivity assays GAL4-AR, GAL4-ERα, GAL4-GR and GAL4-PR, antagonist mode; assay type: cell-based; settings: antagonist activity against MR compared to AR
Method: In certain cases, compounds were also evaluated for activity in selectivity assays with other steroid hormone receptor members, including AR, ER, GR and PR, as well as GAL4 alone. Steroid receptors used for selectivity assays were essentially generated as described above for pCMX-GAL4-MR, and comprised the LBD and a portion of the hinge region of the nuclear receptor of interest cloned in frame into the vector pCMX-GAL4 (Perlmann et al., 1993,Genes & Development 7:1411-1422) as described above.
Assays run in antagonist mode included agonists as follows: AR; 25 nM dihydrotestosterone (DHT), ER; 4.5 nM estradiol, GR; 20 nM dexamethasone, and PR; 2 nM medroxyprogesterone (MPA), respectively. Assays run in agonist mode contained no supplemental compounds.
(§1) The following table provides in vitro MR activity data of representative compounds described in the Examples. […] The “+” mark under the selectivity column is given to those compounds having greater than ten-fold antagonist activity against MR compared to at least one nuclear receptor selected from AR, ERα, GR and PR, as determined from the GAL4-AR, GAL4-ERα, GAL4-GR and GAL4-PR assays. The “++” mark under the selectivity column identifies those compounds having greater than ten-fold antagonist activity against MR compared to the four nuclear receptors AR, ERα, GR and PR, as determined from the GAL4-AR, GAL4-ERα, GAL4-GR and GAL4-PR assays.

human MR = biological target: T1, human MR (Homo sapiens, UniProt P08235); test: GAL4-MR cell based assay, antagonist format
T1 construct: expressed in transfected cells; host or cells: CV-1 (African Green Monkey Kidney Cells), transiently transfected with pCMX-GAL4-MR
T1 sequence (P08235 671-984): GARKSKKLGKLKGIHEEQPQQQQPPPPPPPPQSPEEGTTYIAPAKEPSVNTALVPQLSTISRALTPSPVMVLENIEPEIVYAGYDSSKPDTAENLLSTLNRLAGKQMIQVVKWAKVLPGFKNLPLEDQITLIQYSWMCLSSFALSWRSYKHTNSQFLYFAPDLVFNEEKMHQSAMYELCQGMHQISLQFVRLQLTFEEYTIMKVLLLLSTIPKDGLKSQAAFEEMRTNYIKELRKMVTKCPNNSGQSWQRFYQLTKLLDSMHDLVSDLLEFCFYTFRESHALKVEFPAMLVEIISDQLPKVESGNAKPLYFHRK
Method: Compound activity was determined in a cell-based assay using a GAL4-MR chimera to identify compounds with the ability to modulate MR activity.
The pCMX-GAL4-MR expression plasmid was constructed by cloning nucleotides encoding amino acids 671 to 984 of human MR (see GenBank sequence AAA59571) into the vector pCMX-GAL4 (Perlmann et al., 1993,Genes & Development 7:1411-1422) comprising nucleotides encoding for amino acids 1-147 of the GAL4 DNA binding domain.
The TK-MH 100x4-Luc (GAL4UAS-TK-Luciferase) reporter construct was constructed by insertion of four copies of the Gal4 UAS (Kang et al. 1993, J. Biol. Chem. 268:9629-9635) into the Hind III site of TK-Luc. The parental plasmid, TK-Luc, was prepared by insertion of the Herpes simplex virus thymidine kinase gene promoter (−105 to +51) obtained from the plasmid pBLCAT2 by digestion with HindIII and XhoI (described in Luckow et al., 1987, Nuc. Acid. Res. 15:5490) into the plasmid MMTV-LUC described by Hollenberg and Evans, 1988, Cell 55:899-906) after removal of MMTV-LTR promoter sequence from MMTV-LUC via digestion with HindIII and XhoI. Correct cloning was confirmed by restriction digestion and/or sequencing.
Assays were performed using CV-1 (African Green Monkey Kidney Cells) (ATCC) cells grown in T175 flasks at a density of 3×10^6 cells/flask in DMEM with 5% FBS. Cells were transfected one day after plating at 70-80 percent confluency with a DNA mixture containing (per T175 flask) 9 […] pCMX-GAL4-MR, 9 μg TK-MH100x4-Luc, and 2 μg pCMX β-Gal using the transfection reagent FuGENE6 (Roche Molecular Biochemicals, Indianapolis, Ind.) following recommended protocols and instructions provided by the manufacturer, and incubated with transfection reagents for 5 hours at 37° C.
Transfected cells were trypsinized, resuspended in media, and 45 μL was added to assay plates at a density of approximately 5,000 cells/well using a MultiDrop dispenser (MTX Lab Systems, Inc., VA). The assay plates containing both compounds and screening cells were incubated for approximately 20 hours at 37° C. and 5% CO2 in a tissue culture incubator.
After incubation of the transfected cells with compounds, Lysis buffer (1% Triton X-100, 10% Glycerol, 5 mM DTT, 1 mM EGTA, 25 mM Tricine, pH 7.8) and Luciferin assay buffer (0.73 mM ATP, 22.3 mM Tricine, 0.11 mM EDTA, 33.3 mM DTT, 0.2M MgSO4, 11 mM Luciferin, 6.1 mM Coenzyme A, 0.01 mM HEPES, pH 7.8) were prepared. Media was removed from the plates and lysis buffer and luciferin assay buffer mixed in a 1:1 ratio and then 30 μl of the mixture was added to each well using a Multidrop dispenser. Plates were read on the Northstar (Applied Biosystems, Foster City, Calif.) and data was analyzed using ActivityBase (ID Business Solutions, Ltd., Guildford, Surrey, UK). If required, luciferase values may be normalized for transfection efficiency by measuring β-galactosidase activity based on expression from the pCMX-βGal expression plasmid as described previously (Willy et al., 1995, Gene & Development, 9:1033-1045).
as §1

SMILES | Selectivity (AR, ERα, GR and PR) | IC50 (human MR) [nM]
Cc1nc(C(=O)Nc2ccc(S(C)(=O)=O)cc2)n(C)c1-c1ccccc1Oc1ccccc1 [1,4-dimethyl-5-(2-phenoxy-phenyl)-1H-imidazole-2-carboxylic acid (4-methanesulfonyl-phenyl)-amide] | ++ (greater than ten-fold antagonist activity against MR compared to the four nuclear receptors AR, ERα, GR and PR) | < 500
Cc1c(C(=O)Nc2ccc(S(C)(=O)=O)cc2)nn(C)c1-c1ccccc1C(F)(F)F [1,4-dimethyl-5-(2-trifluoromethyl-phenyl)-1H-pyrazole-3-carboxylic acid (4-methanesulfonyl-phenyl)-amide] | + (greater than ten-fold antagonist activity against MR compared to at least one nuclear receptor selected from AR, ERα, GR and PR) | < 500
Cc1c(C(=O)Nc2ccc(S(N)(=O)=O)cc2)cn(C)c1-c1ccccc1C(F)(F)F [1,4-dimethyl-5-(2-trifluoromethyl-phenyl)-1H-pyrrole-3-carboxylic acid (4-sulfamoyl-phenyl)-amide] | ++ (greater than ten-fold antagonist activity against MR compared to the four nuclear receptors AR, ERα, GR and PR) | < 500
Cc1cc(C(=O)Nc2ccc(S(C)(=O)=O)cc2)c(C)n1-c1ccccc1/C=C/C(C)(C)C [1-[2-((E)-3,3-Dimethyl-but-1-enyl)-phenyl]-2,5-dimethyl-1H-pyrrole-3-carboxylic acid (4-methanesulfonyl-phenyl)-amide] | ++ (greater than ten-fold antagonist activity against MR compared to the four nuclear receptors AR, ERα, GR and PR) | < 500
Cc1cc(C(=O)Nc2ccc(S(C)(=O)=O)cc2)c(C)n1-c1ccc(NC(=O)c2ccc(C(F)(F)F)cc2C(F)(F)F)cc1C(F)(F)F [1-[4-(2,4-bis-trifluoromethyl-benzoylamino)-2-trifluoromethyl-phenyl]-2,5-dimethyl-1H-pyrrole-3-carboxylic acid (4-methanesulfonyl-phenyl)-amide] | + (greater than ten-fold antagonist activity against MR compared to at least one nuclear receptor selected from AR, ERα, GR and PR) | 1000 to 5000
Cc1ccc(NC(=O)c2cc(C)n(-c3ccccc3C(F)(F)F)c2C)cc1Cl [2,5-Dimethyl-1-(2-trifluoromethyl-phenyl)-1H-pyrrole-3-carboxylic acid (3-chloro-4-methyl-phenyl)-amide] | – | < 500
Cc1ccc(NC(=O)c2cc(C)n(-c3ccccc3C(F)(F)F)c2C)cc1F [2,5-Dimethyl-1-(2-trifluoromethyl-phenyl)-1H-pyrrole-3-carboxylic acid (3-fluoro-4-methyl-phenyl)-amide] | – | 500 to 1000
Cc1cc(C(=O)Nc2ccc(S(N)(=O)=O)cc2)c(C)n1-c1ccccc1C(F)(F)F [2,5-Dimethyl-1-(2-trifluoromethyl-phenyl)-1H-pyrrole-3-carboxylic acid (4-sulfamoyl-phenyl)-amide] | ++ (greater than ten-fold antagonist activity against MR compared to the four nuclear receptors AR, ERα, GR and PR) | < 500
Cc1cnc(NC(=O)c2cc(C)n(-c3ccccc3C(F)(F)F)c2C)s1 [2,5-Dimethyl-1-(2-trifluoromethyl-phenyl)-1H-pyrrole-3-carboxylic acid (5-methyl-thiazol-2-yl)-amide] | – | < 500
Cc1cc(C(=O)Nc2ccc3ccccc3c2)c(C)n1-c1ccccc1C(F)(F)F [2,5-Dimethyl-1-(2-trifluoromethyl-phenyl)-1H-pyrrole-3-carboxylic acid naphthalen-2-ylamide] | – | < 500
Cc1cc(C(=O)Nc2ccc(S(C)(=O)=O)cc2)c(C)n1-c1ccccc1C(=O)Nc1cccc([N+](=O)[O-])c1 [2,5-Dimethyl-1-[2-(3-nitro-phenylcarbamoyl)-phenyl]-1H-pyrrole-3-carboxylic acid (4-methanesulfonyl-phenyl)-amide] | + (greater than ten-fold antagonist activity against MR compared to at least one nuclear receptor selected from AR, ERα, GR and PR) | 500 to 1000
Cc1cc(C(=O)Nc2ccc(S(=O)(=O)NC(=N)N)cc2)c(C)n1-c1ccccc1C(F)(F)F [2,5-Dimethyl-1-[2-(trifluoromethyl)phenyl]-1H-pyrrole-3-carboxylic acid (4-guanidinosulfonyl-phenyl)-amide] | + (greater than ten-fold antagonist activity against MR compared to at least one nuclear receptor selected from AR, ERα, GR and PR) | 1000 to 5000
Cc1cc(C(=O)Nc2ccc(S(C)(=O)=O)cc2)c(C)n1-c1cccc2ccccc12 [2,5-Dimethyl-1-naphthalen-1-yl-1H-pyrrole-3-carboxylic acid (4-methanesulfonyl-phenyl)-amide] | ++ (greater than ten-fold antagonist activity against MR compared to the four nuclear receptors AR, ERα, GR and PR) | < 500
COc1cc(NC(=O)c2cc(C)n(-c3ccccc3C(F)(F)F)c2C)ccc1S(N)(=O)=O [2,5-dimethyl-1-(2-trifluoromethyl-phenyl)-1H-pyrrole-3-carboxylic acid (3-methoxy-4-sulfamoyl-phenyl)-amide] | ++ (greater than ten-fold antagonist activity against MR compared to the four nuclear receptors AR, ERα, GR and PR) | < 500
Cc1cc(C(=O)Nc2ccc(NS(C)(=O)=O)cc2)c(C)n1-c1ccccc1C(F)(F)F [2,5-dimethyl-1-(2-trifluoromethyl-phenyl)-1H-pyrrole-3-carboxylic acid (4-methanesulfonylamino-phenyl)-amide] | + (greater than ten-fold antagonist activity against MR compared to at least one nuclear receptor selected from AR, ERα, GR and PR) | 500 to 1000
Cc1cc(C(=O)Nc2ccc(S(=O)(=O)C(C)C)cc2)c(C)n1-c1ccccc1C(F)(F)F [2,5-dimethyl-1-(2-trifluoromethyl-phenyl)-1H-pyrrole-3-carboxylic acid [4-(propane-2-sulfonyl)-phenyl]-amide] | + (greater than ten-fold antagonist activity against MR compared to at least one nuclear receptor selected from AR, ERα, GR and PR) | 500 to 1000
Cc1sc(C(=O)Nc2ccc(S(C)(=O)=O)cc2)c(C)c1-c1ccccc1C(F)(F)F [3,5-dimethyl-4-(2-trifluoromethyl-phenyl)-thiophene-2-carboxylic acid (4-methanesulfonyl-phenyl)-amide] | – | 500 to 1000
Cc1c(C(=O)Nc2ccc(S(C)(=O)=O)cc2)ncn1-c1ccccc1C(F)(F)F [5-methyl-1-(2-trifluoromethyl-phenyl)-1H-imidazole-4-carboxylic acid (4-methanesulfonyl-phenyl)-amide] | – | 1000 to 5000
